The results in this text go back to patent US12310365B2 (priority 2009, dated 2025).

Common to all, as to format: in vivo
Assay [1] has as its system Botrytis cinerea (Diethofencarb-resistant strain). Briefly: Tomato gray mold preventive test (Diethofencarb-resistant strain). As to conditions: Botrytis cinerea, topical, 48 h, read-out: Control value.
Assay [2] relates to Pyricularia oryzae. Kind of assay: whole plant or invertebrate. Particulars: topical, 168 h, read-out: Control value.
Assay [3] deals with Pyricularia oryzae. Kind of assay: whole plant or invertebrate. As to conditions: topical, 168 h, read-out: Control value. This is another data set of the same source.
Assay [4] relates to Sphaerotheca fuliginea. Kind of assay: Cucumber powdery mildew preventive test. As to conditions: Podosphaera fuliginea, topical, 168 h; treatment concentration 10 ppm.
Assay [5] has as its system Sphaerotheca fuliginea. Briefly: Cucumber powdery mildew curative test. As to conditions: Podosphaera fuliginea, topical, 168 h; treatment concentration 10 ppm.
Assay [6] relates to Phytophthora infestans. Briefly: whole plant or invertebrate. As to conditions: in Solanum lycopersicum, topical, 168 h, read-out: Control value.
Assay [7] deals with Phytophthora infestans. Kind of assay: whole plant or invertebrate. As to conditions: in Solanum lycopersicum, topical, 168 h, read-out: Control value. The source holds these as a separate data set.
For assay [8], the system named is Pseudoperonospora cubensis. Kind of assay: Cucumber downy mildew preventive test. As to conditions: Pseudoperonospora cubensis, topical, 168 h; treatment concentration 10 ppm.
Assay [9] relates to Pseudoperonospora cubensis. Kind of assay: Cucumber downy mildew curative test. Particulars: Pseudoperonospora cubensis, topical, 168 h, single ingredient, treatment concentration 10 ppm.

Like-named read-outs stand apart in the source and are kept apart here.

Consider `CC1(C)N=C(c2cnc3ccccc3c2)c2ccccc2C1(F)F` [B, 3-(4,4-difluoro-3,3-dimethyl-3,4-dihydroisoquinolin-1-yl)quinoline], for which the pest or weed control at 10 ppm in [1] stood at 83%; in the assay on Pyricularia oryzae [2], 83%; in the assay with Pyricularia oryzae [3] it was 86%; with Sphaerotheca fuliginea [4], 60%; in the assay on Sphaerotheca fuliginea [5], 73%; with Phytophthora infestans [6], 0%. Also, the results for the pest or weed control at 10 ppm (in the assay on Phytophthora infestans [7]; in [8]; in [9]) were 0%, 28% and 33%, respectively.
For the molecule `CC1(C)N=C(c2cnc3ccccc3c2)c2cccc(F)c2C1(F)F` [C, 3-(4,4,5-trifluoro-3,3-dimethyl-3,4-dihydroisoquinolin-1-yl)quinoline], the pest or weed control at 10 ppm in [1] turned out to be 80%; in the assay on Sphaerotheca fuliginea [4], 65%; in the assay on Sphaerotheca fuliginea [5], 73%; with Phytophthora infestans [6] it was 0%; in the assay on Phytophthora infestans [7], 0%; in assay [8], 33%. The molecule also yielded a pest or weed control at 10 ppm in assay [9] of 33%.
Turning to `CC1(C)N=C(c2cnc3ccccc3c2)c2cccc(F)c2C1(C)C` [Compound A, 3-(5-fluoro-3,3,4,4-tetramethyl-3,4-dihydroisoquinolin-1-yl)quinoline], the pest or weed control at 10 ppm in assay [1] worked out at 83%; in the assay with Sphaerotheca fuliginea [4] it was 50%; in the assay with Sphaerotheca fuliginea [5], 67%; in the assay on Phytophthora infestans [6], 0%; in the assay with Phytophthora infestans [7] it was 0%; in assay [8], 20%. In assay [9], this molecule showed a pest or weed control at 10 ppm of 17%.
